Source: PubChem BioAssay (NCI)
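Briefly, cells in 96-well plates were exposed to five compound concentrations for 48 h, and endpoints were estimated by linear interpolation. Here, GI50 denotes the concentration required for 50% inhibition of growth. TGI marks complete inhibition of growth.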

Legend:
Assay in all cases: inhibition of tumour cell growth, NCI panel, 48 h
T-47D breast = system: T-47D breast
MDA-MB-435 = system: MDA-MB-435
HCT-15 colon = system: HCT-15 colon
A549 NSCLC = system: A549 NSCLC
NCI-H522 lung = system: NCI-H522 lung
NCI-H23 lung = system: NCI-H23 lung
SK-OV-3 ovarian = system: SK-OV-3 ovarian
LOX IMVI melanoma = system: LOX IMVI melanoma
EKVX NSCLC = system: EKVX NSCLC
IGROV1 ovarian = system: IGROV1 ovarian
SK-MEL-5 melanoma = system: SK-MEL-5 melanoma
786-0 renal = system: 786-0 renal
UACC-62 melanoma = system: UACC-62 melanoma
K-562 leukemia = system: K-562 leukemia
A498 renal = system: A498 renal
UACC-257 melanoma = system: UACC-257 melanoma
M14 melanoma = system: M14 melanoma
NCI-H460 lung = system: NCI-H460 lung
MOLT-4 leukemia = system: MOLT-4 leukemia
HS 578T breast = system: HS 578T breast
MCF7 breast = system: MCF7 breast
HL-60(TB) leukemia = system: HL-60(TB) leukemia
MDA-MB-231 breast = system: MDA-MB-231 breast
CCRF-CEM leukemia = system: CCRF-CEM leukemia
UO-31 renal = system: UO-31 renal
NCI/ADR-RES ovarian = system: NCI/ADR-RES ovarian
BT-549 breast = system: BT-549 breast
OVCAR-5 ovarian = system: OVCAR-5 ovarian
SF-539 CNS = system: SF-539 CNS
OVCAR-3 ovarian = system: OVCAR-3 ovarian
HOP-92 NSCLC = system: HOP-92 NSCLC
KM12 colon = system: KM12 colon
SNB-75 CNS = system: SNB-75 CNS
RPMI-8226 leukemia = system: RPMI-8226 leukemia
MALME-3M melanoma = system: MALME-3M melanoma
SN12C renal = system: SN12C renal
HCT-116 colon = system: HCT-116 colon
PC-3 prostate = system: PC-3 prostate
ACHN renal = system: ACHN renal
OVCAR-8 ovarian = system: OVCAR-8 ovarian
SR leukemia = system: SR leukemia
COLO 205 colon = system: COLO 205 colon
DU-145 prostate = system: DU-145 prostate
U251 CNS = system: U251 CNS
TK-10 renal = system: TK-10 renal
HT29 colon = system: HT29 colon
SK-MEL-2 melanoma = system: SK-MEL-2 melanoma
SNB-19 CNS = system: SNB-19 CNS
HCC-2998 colon = system: HCC-2998 colon
HOP-62 NSCLC = system: HOP-62 NSCLC
NCI-H226 lung = system: NCI-H226 lung
SF-295 CNS = system: SF-295 CNS
SK-MEL-28 melanoma = system: SK-MEL-28 melanoma
SF-268 CNS = system: SF-268 CNS
CAKI-1 renal = system: CAKI-1 renal
SW-620 colon = system: SW-620 colon
RXF 393 renal = system: RXF 393 renal

SMILES: Cc1ncc(C(=O)Nc2ccc(CN3CCN(C)CC3)c(C(F)(F)F)c2)cc1C#Cc1cnc(N)c2ccncc12
- GI50 (T-47D breast): 1910 nM
- TGI (T-47D breast): 5880 nM
- GI50 (MDA-MB-435): 1430 nM
- TGI (MDA-MB-435): 2860 nM
- GI50 (HCT-15 colon): 1260 nM
- TGI (HCT-15 colon): 4420 nM
- GI50 (A549 NSCLC): 1780 nM
- TGI (A549 NSCLC): 4240 nM
- GI50 (NCI-H522 lung): 1140 nM
- TGI (NCI-H522 lung): 2500 nM
- GI50 (NCI-H23 lung): 1340 nM
- TGI (NCI-H23 lung): 3350 nM
- GI50 (SK-OV-3 ovarian): 2790 nM
- TGI (SK-OV-3 ovarian): 7130 nM
- GI50 (LOX IMVI melanoma): 337 nM
- TGI (LOX IMVI melanoma): 1400 nM
- GI50 (EKVX NSCLC): 1140 nM
- TGI (EKVX NSCLC): 3380 nM
- GI50 (IGROV1 ovarian): 152 nM
- TGI (IGROV1 ovarian): 1420 nM
- GI50 (SK-MEL-5 melanoma): 1600 nM
- TGI (SK-MEL-5 melanoma): 2980 nM
- GI50 (786-0 renal): 1350 nM
- TGI (786-0 renal): 3300 nM
- GI50 (UACC-62 melanoma): 1400 nM
- TGI (UACC-62 melanoma): 2900 nM
- TGI (K-562 leukemia): 4480 nM
- GI50 (A498 renal): 1350 nM
- TGI (A498 renal): 2920 nM
- GI50 (UACC-257 melanoma): 1640 nM
- TGI (UACC-257 melanoma): 3330 nM
- GI50 (M14 melanoma): 783 nM
- TGI (M14 melanoma): 2500 nM
- GI50 (NCI-H460 lung): 1380 nM
- TGI (NCI-H460 lung): 3020 nM
- GI50 (MOLT-4 leukemia): 389 nM
- TGI (MOLT-4 leukemia): 4620 nM
- GI50 (HS 578T breast): 984 nM
- TGI (HS 578T breast): 4650 nM
- GI50 (MCF7 breast): 1350 nM
- TGI (MCF7 breast): 2900 nM
- GI50 (HL-60(TB) leukemia): 790 nM
- TGI (HL-60(TB) leukemia): 4060 nM
- GI50 (MDA-MB-231 breast): 526 nM
- TGI (MDA-MB-231 breast): 2020 nM
- GI50 (CCRF-CEM leukemia): 2730 nM
- TGI (CCRF-CEM leukemia): 10800 nM
- GI50 (UO-31 renal): 457 nM
- TGI (UO-31 renal): 2270 nM
- GI50 (NCI/ADR-RES ovarian): 1610 nM
- TGI (NCI/ADR-RES ovarian): 5470 nM
- GI50 (BT-549 breast): 2850 nM
- TGI (BT-549 breast): 8330 nM
- GI50 (OVCAR-5 ovarian): 1450 nM
- TGI (OVCAR-5 ovarian): 4530 nM
- GI50 (SF-539 CNS): 548 nM
- TGI (SF-539 CNS): 1790 nM
- GI50 (OVCAR-3 ovarian): 1670 nM
- TGI (OVCAR-3 ovarian): 5330 nM
- GI50 (HOP-92 NSCLC): 615 nM
- TGI (HOP-92 NSCLC): 3620 nM
- GI50 (KM12 colon): 441 nM
- TGI (KM12 colon): 1820 nM
- GI50 (SNB-75 CNS): 854 nM
- TGI (SNB-75 CNS): 2210 nM
- GI50 (RPMI-8226 leukemia): 2180 nM
- TGI (RPMI-8226 leukemia): 5460 nM
- GI50 (MALME-3M melanoma): 361 nM
- TGI (MALME-3M melanoma): 1590 nM
- GI50 (SN12C renal): 616 nM
- TGI (SN12C renal): 3770 nM
- GI50 (HCT-116 colon): 1190 nM
- TGI (HCT-116 colon): 2560 nM
- GI50 (PC-3 prostate): 2410 nM
- TGI (PC-3 prostate): 6760 nM
- GI50 (ACHN renal): 303 nM
- TGI (ACHN renal): 1500 nM
- GI50 (OVCAR-8 ovarian): 1690 nM
- TGI (OVCAR-8 ovarian): 6550 nM
- GI50 (SR leukemia): 2330 nM
- TGI (SR leukemia): 29800 nM
- GI50 (COLO 205 colon): 687 nM
- TGI (COLO 205 colon): 2040 nM
- GI50 (DU-145 prostate): 1100 nM
- TGI (DU-145 prostate): 3270 nM
- GI50 (U251 CNS): 1550 nM
- TGI (U251 CNS): 3350 nM
- GI50 (TK-10 renal): 1600 nM
- TGI (TK-10 renal): 4190 nM
- GI50 (HT29 colon): 432 nM
- TGI (HT29 colon): 2260 nM
- GI50 (SK-MEL-2 melanoma): 1720 nM
- TGI (SK-MEL-2 melanoma): 3650 nM
- GI50 (SNB-19 CNS): 1800 nM
- TGI (SNB-19 CNS): 4620 nM
- GI50 (HCC-2998 colon): 1860 nM
- TGI (HCC-2998 colon): 3390 nM
- GI50 (HOP-62 NSCLC): 1380 nM
- TGI (HOP-62 NSCLC): 3180 nM
- GI50 (NCI-H226 lung): 527 nM
- TGI (NCI-H226 lung): 14300 nM
- GI50 (SF-295 CNS): 1230 nM
- TGI (SF-295 CNS): 2930 nM
- GI50 (SK-MEL-28 melanoma): 1270 nM
- TGI (SK-MEL-28 melanoma): 2820 nM
- GI50 (SF-268 CNS): 702 nM
- TGI (SF-268 CNS): 2990 nM
- GI50 (CAKI-1 renal): 1110 nM
- TGI (CAKI-1 renal): 2660 nM
- GI50 (SW-620 colon): 1490 nM
- TGI (SW-620 colon): 3300 nM
- GI50 (RXF 393 renal): 647 nM
- TGI (RXF 393 renal): 1870 nM
